Measurements as given in US20240197761A1, “FUCOSYLATION AND IMMUNE MODULATION IN CANCER” (H. LEE MOFFITT CANCER CENTER AND RESEARCH INSTITUTE, INC., priority 2021, published 2024).

Test system: SW1 tumors
Assay: Control vs. L-fucose ± FTY720 model: tumor growth and flow cytometric profiling of tumors and lymph nodes (Table 1)
Assay type: in vivo, C3H/HeN mice
Method: FIGS. 15A-15E Lymph node egress is necessary for L-fucose-triggered tumor suppression; L-fucose increases intratumoral CD4+T stem and central memory cells. (a) Immune subpopulations markers use to profile by flow cytometry. (b) Volumetric growth curves for SW1 tumors in C3H/HeN mice fed without (Ctl) or with L-fucose (LF) and treated with FTY720 (Ctl mice administered FTY720: (FTY); LF-supplemented mice administered FTY720: (L+F)). FTY720 was administered at 20 μg per mouse every 2 days starting on Day 12, just prior to the initiation of LF (c) Pie charts showing ratios of intratumoral or lymph node-resident CD4+ or CD8+T cell subpopulations, as well as DC subtypes from mice at Day 14, 28, and 42 (each pie chart represents 4-5 mice). Assessment of cytotoxic CD4+ T cell populations (CRTAM+) and cytotoxic CD8+ T cell populations (GrzB+) from tumors at Day 28 (d) and Day 42 (e). The tumor growth curves are means±SEM from ≥7 mice per group. *=p<0.05.
Tumors of SW1 or SM1 melanoma cells from […] or C57BL/6 mice, respectively) were digested using 1× tumor digest buffer (0.5 mg/mL Collagenase I, 0.5 mg/mL Collagenase IV, 0.25 mg/mL Hyalyronidase V, 0.1 mg/mL DNAse I in HBSS (Millipore Sigma (St. Louis, MO)). Tumors were homogenized using the Miltenyi MACs dissociator. Red blood cells were lysed using ACK lysis buffer (Life Technologies, (Grand Island, NY)). Tumor homogenate cells were counted using a standard hemocytometer.
Total TILs were gated first to single cells (based on forward scatter height vs width, followed by side scatter height vs. width). Live cells were gated from the Zombie negative population from the population above. TILs were gated based on splenocyte size from a control spleen. Individual immune subpopulations were sub-gated from the total TIL population using the following staining criteria: CD3+ for CD3+ T cells; CD3+/CD4+/CD8− for CD4+T cells; CD3+/CD4−/CD8+ for CD8+ T cells, CD11c+/CD11b+ for DCs; either NK1.1 (for C57/BL6 mice) or DX5 (for C3H/HeJ) for NK cells; CD11b+/GR1+ for MDSC-like cells; and F4/80+ for macrophages. Single-cell suspensions from tumor and spleen tissue were stained with Live/Dead Zombie NIR (Biolegend, (San Diego, CA)) at 1:1,000 in PBS for 20 min. Cell suspensions were spun down and stained with the following with antibodies at 0.5 μg/ml per antibody: APC anti-mouse CD3, Pacific Blue anti-mouse CD4, BV785 anti-mouse CD8, PerCP anti-mouse CD25, FITC anti-mouse F4/80, PeCy7 anti-mouse CD11c, PE anti-mouse NK1.1 or PE anti-mouse DX5, and PerCP-Cy5.5 anti-mouse CD11 b. After staining, the cells were washed and fixed (2% formaldehyde), followed by another wash and flow cytometric analysis. The compensation controls were prepared using 0.5 μg/mL of each antibody with UltraComp eBeads, (ThermoFisher Scientific (Waltham, MA)). All samples were subject to flow cytometric profiling using a LSR Flow Cytometer (BD Biosciences (San Jose, CA)) and analysis as indicated using FlowJo software (BD Biosciences (San Jose, CA)).
SW1 or SM1 mouse melanoma cells were injected into syngeneic C3H/HeN (or NSG) female or C57BL/6 male mice, respectively. Cells were injected as follows: parental SW1 cells for FIG. 13A; parental SM1 cells for FIG. 13E; SW1 cells stably expressing either empty vector (EV) or mouse fucose kinase (mFuk) for FIG. 1L; and parental SW1 cells for FIG. 13M. FTY720 was administered at 20 μg every 2 days starting on Day 12, just prior to the initiation of LF, until endpoint.

## CCCCCCCCc1ccc(CCC(N)(CO)CO)cc1 [FTY720, reference compound]
Day 28, lymph nodes
  CD4 central memory, average # of cells: 1362.38 per 10^6 cells of total tumor
  CD4 effector memory, average # of cells: 372.53 per 10^6 cells of total tumor
  CD4 naïve, average # of cells: 20717.91 per 10^6 cells of total tumor
  CD4 stem central memory, average # of cells: 24893.27 per 10^6 cells of total tumor
  CD8 central memory, average # of cells: 85.45 per 10^6 cells of total tumor
  CD8 effector memory, average # of cells: 421.08 per 10^6 cells of total tumor
  CD8 naïve, average # of cells: 6153.14 per 10^6 cells of total tumor
  CD8 stem central memory, average # of cells: 311.59 per 10^6 cells of total tumor
  cDC1, average # of cells: 147.79 per 10^6 cells of total tumor
  cDC2, average # of cells: 448.71 per 10^6 cells of total tumor
  moDC, average # of cells: 41.74 per 10^6 cells of total tumor
Day 28, tumors
  CD4 central memory, average # of cells: 11.56 per 10^6 cells of total tumor
  CD4 effector memory, average # of cells: 336.07 per 10^6 cells of total tumor
  CD4 naïve, average # of cells: 60.03 per 10^6 cells of total tumor
  CD4 stem central memory, average # of cells: 0.87 per 10^6 cells of total tumor
  CD8 central memory, average # of cells: 1.22 per 10^6 cells of total tumor
  CD8 effector memory, average # of cells: 54.02 per 10^6 cells of total tumor
  CD8 naïve, average # of cells: 24.54 per 10^6 cells of total tumor
  CD8 stem central memory, average # of cells: 0.00 per 10^6 cells of total tumor
  cDC1, average # of cells: 463.94 per 10^6 cells of total tumor
  cDC2, average # of cells: 8181.08 per 10^6 cells of total tumor
  moDC, average # of cells: 7526.28 per 10^6 cells of total tumor
Day 42, lymph nodes
  CD4 central memory, average # of cells: 949.35 per 10^6 cells of total tumor
  CD4 effector memory, average # of cells: 3499.07 per 10^6 cells of total tumor
  CD4 naïve, average # of cells: 65491.17 per 10^6 cells of total tumor
  CD4 stem central memory, average # of cells: 742.12 per 10^6 cells of total tumor
  CD8 central memory, average # of cells: 949.35 per 10^6 cells of total tumor
  CD8 effector memory, average # of cells: 3499.07 per 10^6 cells of total tumor
  CD8 naïve, average # of cells: 65491.17 per 10^6 cells of total tumor
  CD8 stem central memory, average # of cells: 742.12 per 10^6 cells of total tumor
  cDC1, average # of cells: 1731.49 per 10^6 cells of total tumor
  cDC2, average # of cells: 3881.72 per 10^6 cells of total tumor
  moDC, average # of cells: 1219.26 per 10^6 cells of total tumor
Day 42, tumors
  CD4 central memory, average # of cells: 32.54 per 10^6 cells of total tumor
  CD4 effector memory, average # of cells: 160.89 per 10^6 cells of total tumor
  CD4 naïve, average # of cells: 44.22 per 10^6 cells of total tumor
  CD4 stem central memory, average # of cells: 18.52 per 10^6 cells of total tumor
  CD8 central memory, average # of cells: 5.73 per 10^6 cells of total tumor
  CD8 effector memory, average # of cells: 220.02 per 10^6 cells of total tumor
  CD8 naïve, average # of cells: 19.42 per 10^6 cells of total tumor
  CD8 stem central memory, average # of cells: 0.00 per 10^6 cells of total tumor
  cDC1, average # of cells: 607.65 per 10^6 cells of total tumor
  cDC2, average # of cells: 279.84 per 10^6 cells of total tumor
  moDC, average # of cells: 197.56 per 10^6 cells of total tumor
FIG. 15c
  intratumoral CD4+T central and effector memory subpopulations: abrogated
